Source: patent publication US9895370B2, “Pharmaceutical composition for preventing or treating of cirrhosis of liver comprising G protein coupled receptor 119 ligand as an active ingredient” (DONGGUK UNIVERSITY INDUSTRY—ACADEMIC COOPERATION FOUNDATION, priority 2015, dated 2018)

Tested on: human HSC line LX-2
Assay: TGFβ1-inducible collagen I and TGFβ expression in LX-2
Type: cell-based
Details: LX-2 treated with TGFβ1; FIGS. 2c, 2d
Protocol: A human HSC line (LX-2, Milipore, U.S.A.) was plated in a 6-well plate, and grown to confluency in DMEM supplemented with 1% penicillin-streptomycin (Hyclone, U.S.A.) and 2% fetal bovine serum (Hyclone, U.S.A.) at 37° C. in a 5% CO2 incubator. For a further experiment, the confluent HSC line was incubated in an FBS-free medium, instead of the 2% FBS-added medium.
Total RNA ([…]) extracted from cells using Trizol and a Maxime RT PreMix Kit (iNtRON Biotechnology, Gyeonggi-do, Korea) was used to obtain cDNA. For RT-PCR, a target gene was amplified by PCR using a Maxime™ PCR PreMix Kit according to the manufacturer's instructions, and subjected to electrophoresis in a 2% agrose gel, thereby identifying the amplified PCR product.
Meanwhile, for real-time RT-qPCR, the synthesized cDNA was assessed in a CFX Connect™ Real-Time PCR Detection System (Bio-Rad Laboratories, CA, USA) instrument using a SYBR green dye (Bio-Rad). The CP value of the gene was calibrated with the CP value of S 18r gene. Also, through a melting curve analysis, specificity of the amplified PCR product was confirmed.
Sodium dodecylsulfate-polyacrylamide gel electrophoresis (SDS-PAGE) was performed using a gel electrophoresis device (Mighty Small SE 250, Hoefer Scientific Instruments, San Francisco) according to the method established by the inventors. A lysed cell fraction was diluted with a sample dilution buffer [63 mM Tris (pH. 6.8), 10% glycerol, 2% SDS, 0.0013% bromophenol blue, 5% β-mercaptoethanol], and subjected to electrophoresis in an electrode buffer (15 g Tris, 72 g glycerin and 5 g SDS contained in an 1 L solution) using a 8-12% gel. After electrophoresis, the gel was transferred to a nitrocellulose membrane to transfer proteins using an electrophoresis device for transfer in a transfer buffer (25 mM Tris, 192 mM glycerin, 20% v/v methanol (pH. 8.3)] at 40 mA for 3 hours. The nitrocellulose membrane was reacted with first antibodies, reacted with horseradish peroxidase-conjugated goat anti-rabbit IgG and horseradish peroxidase-conjugated goat anti-mouse IgG as secondary antibodies for 1 hour, and visualized using an ECL chemiluminescence system (Amersham, Gaithesberg, Mass.).
A critical cytokine having an influence on the induction of liver fibrosis, TGFβ1, is a potent fibrosis stimulation factor for HSCs. To examine the expression of a liver fibrosis-inducing factor which was increased when the human liver cell line LX-2, cultured by method D was treated with TGFβ1, changes in expression according to the treatment with GPR119 ligands (MBX-2982, GSK1292263) were assessed by the methods described in G and H, thereby observing the effect of the GPR119 ligands.

CC(C)c1noc(N2CCC(COc3ccc(-c4ccc(S(C)(=O)=O)cc4)nc3)CC2)n1 [GSK1292263, 3-isopropyl-5-(4-(((6-(4-(methylsulfonyl)phenyl)pyridin-3-yl)oxy)methyl)piperidin-1-yl)-1,2,4-oxadiazole]
expression of TGFβ1-inducible TGFβ: inhibited | expression of TGFβ1-inducible collagen I: inhibited
